Experimental findings from PubChem BioAssay (NCI) are described below.

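Protocol summary: plate cells (96-well), add compound at 5 concentrations, incubate 48 h, interpolate endpoints linearly. GI50: concentration for 50% inhibition of growth. TGI: concentration producing complete growth inhibition.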

Some test systems named below: SF-539 CNS; MOLT-4 leukemia; SK-OV-3 ovarian; OVCAR-5 ovarian; A498 renal; HOP-62 NSCLC; NCI-H226 lung; SF-295 CNS; SF-268 CNS; RXF 393 renal.
Holding throughout (assay): inhibition of tumour cell growth, NCI panel, 48 h

Take `COc1cc(C2CC(c3ccc4c(c3)OCO4)=NN2C=O)cc(OC)c1OC` (stereo not drawn): the GI50 with SF-539 CNS is 2.06 µM; in the test on MOLT-4 leukemia, 4.34 µM; in the test with SK-OV-3 ovarian, 2.25 µM; in the test with OVCAR-5 ovarian it was 12.2 µM; in the test with A498 renal, 0.828 µM; in the test with HOP-62 NSCLC, 2.81 µM. The GI50 with NCI-H226 lung was 8.06 µM; in the test on SF-295 CNS, 0.735 µM; with SF-268 CNS it was 6.88 µM; in the test on RXF 393 renal it was 4.05 µM. Moreover, the TGI in the test with SF-539 CNS was 13 µM; in the test on MOLT-4 leukemia it was above 100 µM; in the test with SK-OV-3 ovarian, above 100 µM; in the test with OVCAR-5 ovarian it was above 100 µM; in the test with HOP-62 NSCLC, above 100 µM; in the test with NCI-H226 lung, above 100 µM. The TGI in the test on SF-295 CNS is 4.26 µM; with SF-268 CNS, above 100 µM; with RXF 393 renal, 22.2 µM.

For `CCCC(=O)OC1C(C(O)CO)OC2OC(C)(C)OC21` (stereo not drawn), the TGI with SF-539 CNS, in the test with MOLT-4 leukemia, in the test on SK-OV-3 ovarian, in the test with OVCAR-5 ovarian, in the test with A498 renal and in the test on HOP-62 NSCLC was above 100 µM each time. The TGI in the test with NCI-H226 lung, in the test with SF-295 CNS, in the test on SF-268 CNS and in the test on RXF 393 renal was above 100 µM each time.

As for `COC(=O)[C@H](C[C@H](Cc1ccccc1)NC(=O)c1csc([C@@H](C[C@H](C(C)C)N(C)C(=O)[C@@H](NC(=O)[C@H]2CCCCN2C)C(C)C)OC(C)=O)n1)NC(=O)OCc1ccccc1`, the GI50 in the test on SF-539 CNS is below 0.0009 µM; with MOLT-4 leukemia, below 0.0009 µM; in the test on SK-OV-3 ovarian, 0.00199 µM; with OVCAR-5 ovarian, 0.0046 µM; in the test on A498 renal, 0.00112 µM; in the test on HOP-62 NSCLC, below 0.0009 µM. In addition, the GI50 with NCI-H226 lung was 0.00144 µM; in the test on SF-295 CNS it was 0.00128 µM; with SF-268 CNS, 0.000974 µM; with RXF 393 renal, below 0.0009 µM. Further, the TGI in the test with SF-539 CNS was 0.00367 µM; in the test with MOLT-4 leukemia, above 9 µM; in the test with SK-OV-3 ovarian, above 9 µM; in the test with OVCAR-5 ovarian, above 9 µM; in the test on A498 renal, 0.0101 µM; in the test with HOP-62 NSCLC, above 9 µM. Further, the TGI in the test on NCI-H226 lung was 0.0799 µM; in the test with SF-295 CNS it was above 9 µM; in the test on SF-268 CNS, above 9 µM; in the test with RXF 393 renal it was above 9 µM.

Take `NNC(=O)/C(=C/c1ccc(Cl)cc1Cl)NC(=O)c1ccccc1`: the TGI with SF-539 CNS, with MOLT-4 leukemia, with SK-OV-3 ovarian, with OVCAR-5 ovarian, with A498 renal and in the test with HOP-62 NSCLC was above 100 µM throughout. Moreover, the TGI with NCI-H226 lung, in the test with SF-295 CNS, with SF-268 CNS and in the test on RXF 393 renal was above 100 µM each time.

As for `COc1ccc2c(c1)cn1c3ccc(O)cc3nc(N)c21`, the GI50 with SF-539 CNS was 0.237 µM; with MOLT-4 leukemia it was 1.18 µM; in the test with SK-OV-3 ovarian, 0.324 µM; with OVCAR-5 ovarian, 1.57 µM; with A498 renal it was 0.498 µM; with HOP-62 NSCLC it was 0.205 µM. In addition, the GI50 was 0.597 µM with NCI-H226 lung, 0.203 µM with SF-295 CNS, 0.238 µM in the test on SF-268 CNS and 0.0852 µM with RXF 393 renal. The TGI was 2.72 µM in the test with SF-539 CNS; 21.7 µM in the test on MOLT-4 leukemia; 6.48 µM in the test on SK-OV-3 ovarian; 18.3 µM in the test on OVCAR-5 ovarian; 17.4 µM in the test on A498 renal; 8.18 µM in the test with HOP-62 NSCLC. Moreover, the TGI in the test with NCI-H226 lung amounted to 23.2 µM; in the test on SF-295 CNS it was 4 µM; in the test on SF-268 CNS, 7.24 µM; in the test with RXF 393 renal it was 2.66 µM.

Turning to `CCc1ccccc1NC(=O)C(=O)CC(=O)c1sc(Nc2ccccc2)nc1C`, the TGI in the test on SF-539 CNS, in the test with MOLT-4 leukemia, in the test with SK-OV-3 ovarian, in the test with OVCAR-5 ovarian, in the test with A498 renal and in the test on HOP-62 NSCLC was above 100 µM in each case. Also, the TGI with NCI-H226 lung, with SF-295 CNS, with SF-268 CNS and with RXF 393 renal was above 100 µM each time.

As for `CC#C[C@]1(O)CC[C@H]2[C@@H]3CCC4=CC(=O)CCC4=C3[C@@H](c3ccc4c(c3)OCO4)C[C@@]21C`, the GI50 with SF-539 CNS was 89.2 µM; in the test on MOLT-4 leukemia, 49.5 µM; with SK-OV-3 ovarian, 186 µM; in the test with OVCAR-5 ovarian, 236 µM; in the test with A498 renal it was 88.3 µM; in the test with HOP-62 NSCLC, 120 µM. In addition, the GI50 was 140 µM with NCI-H226 lung, 67.8 µM in the test on SF-295 CNS, 79.1 µM in the test with SF-268 CNS and 43.8 µM in the test with RXF 393 renal. The TGI was 274 µM with SF-539 CNS; above 1000 µM with MOLT-4 leukemia; 777 µM in the test on SK-OV-3 ovarian; above 1000 µM in the test with OVCAR-5 ovarian; 268 µM in the test with A498 renal; 400 µM in the test with HOP-62 NSCLC. Besides, the TGI is 617 µM with NCI-H226 lung, 329 µM in the test with SF-295 CNS, 481 µM in the test on SF-268 CNS and 197 µM with RXF 393 renal.

As to `O=c1cc(-c2ccccc2)[nH]c2ccccc12`, the GI50 in the test with SF-539 CNS was 0.412 µM; in the test on MOLT-4 leukemia, 0.703 µM; with SK-OV-3 ovarian, 1.48 µM; in the test on A498 renal, 0.428 µM; in the test with HOP-62 NSCLC it was 4.85 µM; in the test on NCI-H226 lung, 7.4 µM. Moreover, the GI50 in the test with SF-295 CNS is 0.458 µM; with SF-268 CNS, 3.18 µM; with RXF 393 renal, 0.996 µM. The TGI was 9.66 µM in the test with SF-539 CNS; above 100 µM with MOLT-4 leukemia; above 92.1 µM in the test with SK-OV-3 ovarian; above 100 µM in the test on OVCAR-5 ovarian; 33 µM in the test with A498 renal; above 100 µM in the test with HOP-62 NSCLC. For the same compound, the TGI in the test on NCI-H226 lung is above 100 µM; in the test with SF-295 CNS, above 100 µM; with SF-268 CNS, above 100 µM; with RXF 393 renal, 9.68 µM.

Turning to `Cc1ccc(NC(=O)C(=O)C(C#N)c2ccccc2C)cc1C` (stereo not drawn), the TGI in the test on SF-539 CNS, in the test with MOLT-4 leukemia, with SK-OV-3 ovarian, with OVCAR-5 ovarian, in the test with A498 renal and in the test with HOP-62 NSCLC was above 100 µM throughout. In addition, the TGI in the test on NCI-H226 lung, with SF-295 CNS, with SF-268 CNS and in the test on RXF 393 renal was above 100 µM throughout.

As to `C[C@@H]1C[C@H]2CC[C@H](O2)[C@H](C)C(=O)O[C@@H](C)C[C@@H]2CC[C@@H](O2)[C@@H](C)C(=O)O[C@H](C)C[C@H]2CC[C@H](O2)[C@H](C)C(=O)O[C@@H](C)C[C@@H]2CC[C@@H](O2)[C@@H](C)C(=O)O1`, the TGI in the test with SF-539 CNS was above 100 µM; in the test with MOLT-4 leukemia it was 22 µM; in the test on SK-OV-3 ovarian, 0.567 µM; in the test on OVCAR-5 ovarian, above 100 µM; with A498 renal, above 19.7 µM; with HOP-62 NSCLC, 4.78 µM. The TGI was above 93.5 µM in the test on NCI-H226 lung, 0.659 µM in the test with SF-295 CNS, above 51.4 µM in the test with SF-268 CNS and above 100 µM in the test on RXF 393 renal.

For the compound `O=C1c2cccnc2C(=O)c2nc3cc(N4CCN(C5CC5)CC4)ccc3nc21`, the GI50 was 0.442 µM in the test on SF-539 CNS; 2.4 µM in the test with MOLT-4 leukemia; 0.648 µM in the test on SK-OV-3 ovarian; 1.34 µM in the test on OVCAR-5 ovarian; 1.34 µM with A498 renal; 0.232 µM in the test with HOP-62 NSCLC. The GI50 with NCI-H226 lung was 1.46 µM; in the test with SF-295 CNS, 0.41 µM; with SF-268 CNS, 1.24 µM; in the test on RXF 393 renal, 0.607 µM. The TGI in the test on SF-539 CNS came to 1.66 µM; in the test with MOLT-4 leukemia it was 5.62 µM; in the test on SK-OV-3 ovarian, 2.89 µM; in the test on OVCAR-5 ovarian it was 3.07 µM; in the test on A498 renal, 2.91 µM; in the test on HOP-62 NSCLC it was 1.05 µM. In addition, the TGI with NCI-H226 lung stood at 4.08 µM; in the test on SF-295 CNS it was 1.59 µM; in the test on SF-268 CNS, 4.93 µM; with RXF 393 renal, 2.61 µM.
